Measured values published in US7491521B2 (priority 2004, dated 2009).
Several values for one entry are separate records, joined by “and”; a condition that tells them apart may be missing. Equal values may be shown once.

Assays:
[1] = test system: E. coli harboring pUD15; type: cell-based
[2] = test system: E. coli harboring pUD15 and pUD16; type: cell-based

[Cl-].[Cl-].[Co+2] [CoC12, CoCl2]
optical density of the culture at 600 nm [1]: 2.808 and 2.6955 and 2.330 | optical density of the culture at 600 nm [2]: 2.524 and 2.173 and 2.113
